Assay results reported in ChEMBL document CHEMBL1275501, “Plasmid-mediated quinolone resistance pump QepA2 in an Escherichia coli isolate from France” (2008).
≈ marks a conversion by molar mass, not a printed value.

Assays:
Escherichia coli [1] = assay: Antimicrobial activity against azide-resistant Escherichia coli J53 harboring pCTX-M carrying blaCTX-M-15 and pQep plasmid carrying qepA2 gene by disk diffusion method; type: functional
Escherichia coli [2] = assay: Antimicrobial activity against Escherichia coli BicA expressing blaTEM-1, blaCTX-M-15 and qepA2 gene by disk diffusion method
Escherichia coli [3] = assay: Antimicrobial activity against Escherichia coli TOP10 harboring pQep plasmid carrying qepA2 gene by disk diffusion method; type: functional
Escherichia coli [4] = assay: Antimicrobial activity against azide-resistant Escherichia coli J53 by disk diffusion method; type: functional
Escherichia coli [5] = assay: Antimicrobial activity against azide-resistant Escherichia coli J53 harboring pCTX-M plasmid carrying blaCTX-M-15 gene by disk diffusion method; type: functional
Escherichia coli [6] = assay: Antimicrobial activity against Escherichia coli TOP10 by disk diffusion method; type: functional
Escherichia coli [7] = assay: Antimicrobial activity against Escherichia coli BicA expressing blaTEM-1, blaCTX-M-15 and qepA2 gene by disk diffusion method in presence of beta-lactamase inhibitor clavulanic acid; type: functional
Escherichia coli [8] = assay: Antimicrobial activity against azide-resistant Escherichia coli J53 harboring pCTX-M plasmid carrying blaCTX-M-15 gene by disk diffusion method in presence of beta-lactamase inhibitor clavulanic acid; type: functional
Escherichia coli [9] = assay: Antimicrobial activity against azide-resistant Escherichia coli J53 harboring pCTX-M carrying blaCTX-M-15 and pQep plasmid carrying qepA2 gene by disk diffusion method in presence of beta-lactamase inhibitor clavulanic acid; type: functional
Escherichia coli [10] = assay: Antimicrobial activity against Escherichia coli TOP10 harboring pQep plasmid carrying qepA2 gene by disk diffusion method in presence of beta-lactamase inhibitor clavulanic acid; type: functional
Escherichia coli [11] = assay: Antimicrobial activity against azide-resistant Escherichia coli J53 by disk diffusion method in presence of beta-lactamase inhibitor clavulanic acid; type: functional
Escherichia coli [12] = assay: Antimicrobial activity against Escherichia coli TOP10 by disk diffusion method in presence of beta-lactamase inhibitor clavulanic acid; type: functional
Escherichia coli [13] = assay: Antimicrobial activity against Escherichia coli TOP10 by disk diffusion method in presence of beta-lactamase inhibitor Tazobactam; type: functional
Escherichia coli [14] = assay: Antimicrobial activity against azide-resistant Escherichia coli J53 harboring pCTX-M plasmid carrying blaCTX-M-15 gene by disk diffusion method in presence of beta-lactamase inhibitor Tazobactam; type: functional
Escherichia coli [15] = assay: Antimicrobial activity against azide-resistant Escherichia coli J53 by disk diffusion method in presence of beta-lactamase inhibitor Tazobactam; type: functional
Escherichia coli [16] = assay: Antimicrobial activity against Escherichia coli BicA expressing blaTEM-1, blaCTX-M-15 and qepA2 gene by disk diffusion method in presence of beta-lactamase inhibitor Tazobactam; type: functional
Escherichia coli [17] = assay: Antimicrobial activity against Escherichia coli TOP10 harboring pQep plasmid carrying qepA2 gene by disk diffusion method in presence of beta-lactamase inhibitor Tazobactam; type: functional
Escherichia coli [18] = assay: Antimicrobial activity against azide-resistant Escherichia coli J53 harboring pCTX-M carrying blaCTX-M-15 and pQep plasmid carrying qepA2 gene by disk diffusion method in presence of beta-lactamase inhibitor Tazobactam; type: functional

| Compound | MIC (Escherichia coli [1]) [µg/mL] | MIC (Escherichia coli [2]) [µg/mL] | MIC (Escherichia coli [3]) [µg/mL] | MIC (Escherichia coli [4]) [µg/mL] | MIC (Escherichia coli [5]) [µg/mL] | MIC (Escherichia coli [6]) [µg/mL] | other results |
| --- | --- | --- | --- | --- | --- | --- | --- |
| CO/N=C(\C(=O)N[C@@H]1C(=O)N2C(C(=O)[O-])=C(C[N+]3(C)CCCC3)CS[C@H]12)c1csc(N)n1 | 16 (≈ 33.3 µM) | > 32 | 0.12 (≈ 0.25 µM) | 0.01 (≈ 0.0208 µM) | 16 (≈ 33.3 µM) | – | – |
| NC[C@H]1O[C@H](O[C@H]2[C@H](O)[C@@H](O[C@H]3O[C@H](CO)[C@@H](O)[C@H](N)[C@H]3O)[C@H](N)C[C@@H]2N)[C@H](N)C[C@@H]1O [TOBRAMYCIN] | 0.25 (≈ 0.535 µM) | 0.5 (≈ 1.07 µM) | 0.5 (≈ 1.07 µM) | 0.12 (≈ 0.257 µM) | 0.25 (≈ 0.535 µM) | 0.5 (≈ 1.07 µM) | – |
| O=C(O)c1cn(C2CC2)c2cc(N3CCNCC3)c(F)cc2c1=O [CIPROFLOXACIN] | – | > 32 | – | – | – | – | – |
| COc1c(N2C[C@@H]3CCCN[C@@H]3C2)c(F)cc2c(=O)c(C(=O)O)cn(C3CC3)c12 [MOXIFLOXACIN] | 0.12 (≈ 0.299 µM) | > 32 | 0.01 (≈ 0.0249 µM) | – | – | 0.004 (≈ 0.00996 µM) | – |
| CC1(C)S[C@@H]2[C@H](NC(=O)[C@H](N)c3ccc(O)cc3)C(=O)N2[C@H]1C(=O)O [AMOXICILLIN] | > 256 | > 256 | > 256 | 4 (≈ 10.9 µM) | > 256 | 4 (≈ 10.9 µM) | MIC (Escherichia coli [7]): 16 µg/mL; MIC (Escherichia coli [8]): 16 µg/mL; MIC (Escherichia coli [9]): 16 µg/mL; MIC (Escherichia coli [10]): 16 µg/mL; MIC (Escherichia coli [11]): 4 µg/mL; MIC (Escherichia coli [12]): 4 µg/mL |
| CN(C)[C@@H]1C(O)=C(C(N)=O)C(=O)[C@@]2(O)C(O)=C3C(=O)c4c(O)cccc4[C@@](C)(O)[C@H]3C[C@@H]12 [TETRACYCLINE] | 2 (≈ 4.5 µM) | > 256 | > 256 | 2 (≈ 4.5 µM) | 2 (≈ 4.5 µM) | 2 (≈ 4.5 µM) | – |
| O=C(N[C@H](CO)[C@H](O)c1ccc([N+](=O)[O-])cc1)C(Cl)Cl [CHLORAMPHENICOL] | > 256 | > 256 | > 256 | 8 (≈ 24.8 µM) | 8 (≈ 24.8 µM) | 4 (≈ 12.4 µM) | – |
| COc1cc(Cc2cnc(N)nc2N)cc(OC)c1OC [TRIMETHOPRIM] | > 256 | > 256 | > 256 | 0.25 (≈ 0.861 µM) | 0.25 (≈ 0.861 µM) | 0.12 (≈ 0.413 µM) | – |
| CCN1CCN(C(=O)N[C@@H](C(=O)N[C@@H]2C(=O)N3[C@@H]2SC(C)(C)[C@@H]3C(=O)O)c2ccccc2)C(=O)C1=O [PIPERACILLIN] | > 256 | > 256 | > 256 | 2 (≈ 3.86 µM) | > 256 | 2 (≈ 3.86 µM) | MIC (Escherichia coli [13]): 1 µg/mL; MIC (Escherichia coli [14]): 2 µg/mL; MIC (Escherichia coli [15]): 1 µg/mL; MIC (Escherichia coli [16]): 4 µg/mL; MIC (Escherichia coli [17]): 2 µg/mL; MIC (Escherichia coli [18]): 2 µg/mL |
| CCn1cc(C(=O)O)c(=O)c2cc(F)c(N3CCN(C)CC3)cc21 [PEFLOXACIN] | 0.06 (≈ 0.18 µM) | > 32 | – | 0.06 (≈ 0.18 µM) | 0.06 (≈ 0.18 µM) | 0.03 (≈ 0.09 µM) | – |
| CC(C)(O/N=C(\C(=O)N[C@@H]1C(=O)N2C(C(=O)[O-])=C(C[n+]3ccccc3)CS[C@H]12)c1csc(N)n1)C(=O)O [CEFTAZIDIME] | 16 (≈ 29.3 µM) | > 32 | 0.12 (≈ 0.22 µM) | 0.12 (≈ 0.22 µM) | 16 (≈ 29.3 µM) | 0.06 (≈ 0.11 µM) | – |
| CO/N=C(\C(=O)N[C@@H]1C(=O)N2C(C(=O)O)=C(COC(C)=O)CS[C@H]12)c1csc(N)n1 [CEFOTAXIME] | > 32 | > 32 | 0.06 (≈ 0.132 µM) | 0.06 (≈ 0.132 µM) | > 32 | 0.06 (≈ 0.132 µM) | – |
| CO[C@H]1/C=C/O[C@@]2(C)Oc3c(C)c(O)c4c(O)c(c(/C=N/N5CCN(C)CC5)c(O)c4c3C2=O)NC(=O)/C(C)=C\C=C\[C@H](C)[C@H](O)[C@@H](C)[C@@H](O)[C@@H](C)[C@H](OC(C)=O)[C@@H]1C [RIFAMPIN] | 8 (≈ 9.72 µM) | 16 (≈ 19.4 µM) | 16 (≈ 19.4 µM) | 8 (≈ 9.72 µM) | 8 (≈ 9.72 µM) | 16 (≈ 19.4 µM) | – |
| CCN[C@@H]1C[C@H](N)[C@@H](O[C@H]2OC(CN)=CC[C@H]2N)[C@H](O)[C@H]1O[C@H]1OC[C@](C)(O)[C@H](NC)[C@H]1O [NETILMICIN] | 0.12 (≈ 0.252 µM) | 0.5 (≈ 1.05 µM) | 0.25 (≈ 0.526 µM) | 0.12 (≈ 0.252 µM) | 0.12 (≈ 0.252 µM) | 0.25 (≈ 0.526 µM) | – |
